Results as given in US20250120957A1, “TREATMENT OF NEUROPSYCHIATRIC DISORDERS WITH TILIVAPRAM” (Alto Neuroscience, Inc., priority 2023, published 2025).

Tests used:
Format in all cases: in vivo, human
[1] = test system: healthy patients aged 40 to 65 years old; experiment: Phase 1 three-way crossover study: resting 19 channel EEG and cognitive task ERPs; conditions: vs placebo
Experimental: (§1) A phase 1 three-way, crossover study was performed as shown in FIG. 1 on healthy patients aged 40 to 65 years old to determine dose and pharmacodynamic outcomes. Patients in the fasted state were orally administered 0.5 or 1.5 mg tilivapram or placebo in the form of an immediate release suspension. Outcomes were measured with a computerized neurocognitive test battery, resting 19 channel EEG, and cognitive task ERPs (event-related potentials). 44 patients were dosed (and used for AE analyses), of which 40 received all three doses (and used for analysis of cognitive, EEG and ERP outcomes).
Theta (4-8 Hz) is an EEG rhythm involving connections between the hippocampus and prefrontal cortex. Frontal midline resting theta power is elevated across a range of cognitive disorders, such as schizophrenia, ADHD, Parkinson's disease, Alzheimer's disease and mild cognitive impairment (MCI) (see Newson et al., Front Hum Neurosci., 2019, 12:521 (PMID 30687041)). Increased theta power correlates with poorer cognitive task performance. […] Tilivapram has a wide therapeutic window as there were significant decreases in theta power at both the 0.5 mg and 1.5 mg doses.
Stimulus-induced theta response, such as measured by inter-trial coherence, phase locking factor or event-related spectral perturbation, reflect the brain response during stimulus processing, is reduced in patients with schizophrenia, and the degree of reduction is correlated with the degree of cognitive impairment in these patients (Lee at al., Mol Psychiatry, 2017, 22 (11): 1585-1593, PMID 28167837; Martínez et al., Front Hum Neurosci., 2015, 9:371, PMID 26190988; Xiong et al.,Front Hum Neurosci., 2019, 13:37, PMID 30894804; Hua et al., Biol Psychiatry Cogn Neurosci Neuroimaging., 2023, 8 (12): 1186-1196, PMID: 36931469; Hochberger et al., Int. J. Psychophysiology, 2019, 145:23-29, PMID: 30586570; Wolff et al., Cerebral Cortex, 2022, 32:3441-3456: PMID: 34875019).
Evoked sensory gamma-based responses represent both basic sensory processing as well as higher cognitive functions, such as attention and memory. The onset of a stimulus triggers precisely timed local processing, evident as an increase in gamma-band intertrial phase locking. Gamma-band phase locking at ˜50 ms after stimulus onset is reduced in schizophrenia and other psychotic spectrum disorders such as bipolar disorder (see Roach et al., Schizophr Bull., 34 (5): 907-26, 2008 (PMID 18684772); Javitt et al., Neuropsychopharmacology, 45 (9): 1411-1422, 2020 (PMID 32375159)). […]

[2] = test system: healthy patients aged 40 to 65 years old; experiment: Phase 1 three-way crossover study: computerized neurocognitive test battery; conditions: for global cognition, effect size d relative to placebo / memory, effect size d relative to placebo: 0.5 mg oral
Experimental: as §1
Tilivapram has a wide therapeutic window in the finger tapping task as there were significant decreases in latency at both the 0.5 mg and 1.5 mg doses.
The effect of tilivapram versus placebo on cognition was examined between subgroups of the study sample differing in their global cognitive composite score at baseline. […] However, examining only participants with baseline global cognition below healthy norms (z<−0.5), the effect of 0.5 mg tilivapram relative to placebo increased to d=0.861, p=0.034. […] Examining participants with global cognition of z<−0.5, the effect on memory becomes larger and statistically significant (d=0.797, p=0.048).

[3] = test system: healthy patients aged 40 to 65 years old; experiment: Phase 1 three-way crossover study: adverse events
Experimental: as §1
The adverse events were primarily nausea, as expected given the well-known dose-limiting effects of PDE4 inhibitors on nausea. Approximately 28% of people experienced nausea at the 1.5 mg dose, while only 2% did so at the 0.5 mg dose. […] Only one patient discontinued treatment due to an adverse event at the higher dose (1.5 mg) of tilivapram.

[4] = test system: participants; experiment: Phase I open-label 2-way cross-over study of oral solution vs transdermal delivery system: related adverse events
Experimental: A phase I, open-label, fixed period, 2-way cross-over study was performed to establish the pharmacokinetics and safety of a transdermal delivery system containing tilivapram. In Period 1 Day 1 (P1D1), participants were dosed with 1.0 mg of tilivapram in a liquid oral solution in a fasted state. After a 7-day washout period, participants were dosed with the first set of 4 patches applied by study staff on Period 2 Day 1 (P2D1), which were then removed after 24 hours and 4 new patches applied for an additional 24 hours on Period 2 Day 2 (P2D2) for a total of 48 hours. All but one of the 15 subjects completed the study. One subject withdrew after receiving the oral solution.

[5] = 0.5 and 1.5 mg oral, vs placebo
[6] = oral N=15, transdermal N=14, overall N=15

COc1cnc(C(=O)Nc2c(Cl)c[n+]([O-])cc2Cl)cc1OCC1CC1 [tilivapram, 4-(cyclopropylmethoxy)-N-(3,5-dichloro-1-oxidopyridin-4-yl)-5-methoxypyridine-2-carboxamide]
theta intertrial coherence at the Cz electrode ([1]; 0.5 mg and 1.5 mg oral, auditory stimulus): increased theta intertrial coherence | theta relative power at the Fz electrode (resting EEG) ([1]; 0.5 and 1.5 mg oral immediate release suspension, fasted): decreased theta relative power | gamma-band phase locking approximately 50 ms after onset of a tone auditory stimulus ([1]; 0.5 and 1.5 mg oral, Pz electrode): increased gamma-band phase locking | mismatch negativity (MMN) at the Fz electrode ([1]; 0.5 and 1.5 mg oral, oddball task): increased MMN | global cognition, effect size d relative to placebo ([2]; full sample, p=0.223): 0.274 | memory, effect size d relative to placebo ([2]; full sample, p=0.359): 0.207 | global cognition, effect size d relative to placebo ([2]; participants with baseline global cognition z<−0.5, p=0.034): 0.861 | memory, effect size d relative to placebo ([2]; participants with global cognition z<−0.5, p=0.048): 0.797 | processing speed (composite z-score of simple reaction time, choice reaction time and Eriksen flanker tasks) [2, 5]: improved processing speed | psychomotor speed (latency in a finger tapping task) [2, 5]: improved psychomotor speed | people experiencing nausea ([3]; 0.5 mg oral dose): 2% | dizziness and lightheadedness ([3]; 0.5 mg to 1.5 mg oral): substantially increased in a dose-related manner | patients who discontinued treatment due to an adverse event ([3]; 1.5 mg oral dose): one | people experiencing nausea ([3]; 1.5 mg oral dose): Approximately 28% | adverse events ([3]; from the 0.5 mg dose to the 1.5 mg dose, oral): increased substantially | Number of participants with at least 1 TEAE ([4]; oral 1.0 mg fasted N=15, 4 patches x 2 days N=14, overall N=15): 11 (73.3) n (%) | Abdominal pain [4, 6]: 0 n (%) | Administration site erythema [4, 6]: 0 n (%) | Administration site pain [4, 6]: 0 n (%) | Administration site pruritus [4, 6]: 2 (13.3) n (%) | Arthralgia [4, 6]: 0 n (%) | Asthenia [4, 6]: 1 (6.7) n (%) | Dermatitis acneiform [4, 6]: 0 n (%) | Diarrhea [4, 6]: 1 (6.7) n (%) | Dizziness [4, 6]: 6 (40.0) n (%) | Dyspepsia [4, 6]: 1 (6.7) n (%) | Ear and labyrinth disorders [4, 6]: 1 (6.7) n (%) | Fatigue [4, 6]: 0 n (%) | Gastrointestinal disorders [4, 6]: 3 (20.0) n (%) | General disorders and administration site conditions [4, 6]: 2 (13.3) n (%) | Headache [4, 6]: 6 (40.0) n (%) | Insomnia [4, 6]: 0 n (%) | Irritability [4, 6]: 0 n (%) | Musculoskeletal and connective tissue disorders [4, 6]: 0 n (%) | Nausea [4, 6]: 3 (20.0) n (%) | Nervous system disorders [4, 6]: 8 (53.3) n (%) | Neuralgia [4, 6]: 0 n (%) | Number of TEAEs [4, 6]: 28 | Psychiatric disorders [4, 6]: 0 n (%) | Skin and subcutaneous tissue disorders [4, 6]: 0 n (%) | Vertigo [4, 6]: 1 (6.7) n (%)
